Reference: US12544463B2, “Deuterium substituted positron emission tomography (PET) imaging agents and their pharmacological application” (Five Eleven Pharma Inc., priority 2017, dated 2026)

Experiments:
[1] = target: T1, serotonin transporters (SERT) (Rattus norvegicus, UniProt P31652); experiment: In vitro binding assay, LLC-SERT membrane homogenates, [^125I]IDAM; conditions: for Ki: 0.2 nM [^125I]IDAM, LLC-SERT membranes, read-out: Ki (SERT binding affinity) (converted)
T1 construct: expressed in transfected cells; host or cells: LLC-PK1 (LLC-SERT)
Procedure: The membrane homogenates of serotonin transporters (LLC-SERT, which were expressed in a common parental cell line LLC-PK1) were prepared and used for the binding assays. Competitive binding assays were performed in a final volume of 0.25 mL. […] Nonspecific binding was defined with 10 μM citalopram. Incubation was carried out for 60 min at room temperature and the bound ligand was collected on glass fiber filters presoaked with 1% polyethylenimine (SIGMA, St. Louis, MO) and counted in a gamma counter (Wizard^2, Perkin Elmer).

[2] = Biodistribution study in mice; assay type: in vivo; conditions: for Biodistribution Blood / Biodistribution Bone / Biodistribution Brain / Biodistribution Heart / Biodistribution Kidney / Biodistribution Liver / Biodistribution Lung / Biodistribution Muscle / Biodistribution Pancreas / Biodistribution Skin / Biodistribution Spleen: normal male mice
Procedure: Three mice per group were used for biodistribution study. While under isoflurane anesthesia, 0.1 mL of a saline solution containing radioactive tracer was injected into tail vein. The mice were sacrificed at the time indicated by cardiac excision while under isoflurane anesthesia. Organs of interest were removed and weighed, and the radioactivity was counted. The percent dose per organ was calculated by comparing the tissue counts to counts of 1% of the initial dose (100 times diluted aliquots of the injected material) measured at the same time.

SERT = target: T2, SERT (Rattus norvegicus, UniProt P31652); experiment: Region to cerebellum ratio in rats, ^18F-III-3; assay type: in vivo; conditions: normal rats, i.v.
T2 construct: host or cells: live rats, dissected brain regions
Procedure: (§1) Three rats per group were used for each biodistribution study. While under isoflurane anesthesia, 0.2 mL of a saline solution containing 20 μCi of radioactive tracer was injected into the femoral vein. The rats were sacrificed at the time indicated by cardiac excision while under isoflurane anesthesia. Organs of interest were removed and weighed, and the radioactivity was counted. The percent dose per organ was calculated by comparing the tissue counts to counts of 1% of the initial dose (100 times diluted aliquots of the injected material) measured at the same time. Regional brain distribution in rats was measured after an iv injection of the radioactive tracer. Samples from different brain regions [cortex, striatum, hippocampus, cerebellum and hypothalamus] were dissected, weighed and counted. The percentage dose/g of each sample was calculated by comparing sample counts with the counts of the diluted initial dose described above. The ratio was calculated by dividing the percentage dose/g of each region by that of the cerebellum. The cerebellum was used as the reference region for calculating the ratio of target to non-target binding, because only a trace amount of SERT is present in the cerebellum.

[3] = Biodistribution in rats of ^18F-III-3 (^18F-FPBM-D12); assay type: in vivo, rat; conditions: for Biodistribution Blood / Biodistribution Bone / Biodistribution Brain / Biodistribution Heart / Biodistribution Kidney / Biodistribution Liver / Biodistribution Lung / Biodistribution Muscle / Biodistribution Pancreas / Biodistribution Skin / Biodistribution Spleen: normal rats, i.v.
Procedure: as §1

T2 sequence (P31652 whole entry): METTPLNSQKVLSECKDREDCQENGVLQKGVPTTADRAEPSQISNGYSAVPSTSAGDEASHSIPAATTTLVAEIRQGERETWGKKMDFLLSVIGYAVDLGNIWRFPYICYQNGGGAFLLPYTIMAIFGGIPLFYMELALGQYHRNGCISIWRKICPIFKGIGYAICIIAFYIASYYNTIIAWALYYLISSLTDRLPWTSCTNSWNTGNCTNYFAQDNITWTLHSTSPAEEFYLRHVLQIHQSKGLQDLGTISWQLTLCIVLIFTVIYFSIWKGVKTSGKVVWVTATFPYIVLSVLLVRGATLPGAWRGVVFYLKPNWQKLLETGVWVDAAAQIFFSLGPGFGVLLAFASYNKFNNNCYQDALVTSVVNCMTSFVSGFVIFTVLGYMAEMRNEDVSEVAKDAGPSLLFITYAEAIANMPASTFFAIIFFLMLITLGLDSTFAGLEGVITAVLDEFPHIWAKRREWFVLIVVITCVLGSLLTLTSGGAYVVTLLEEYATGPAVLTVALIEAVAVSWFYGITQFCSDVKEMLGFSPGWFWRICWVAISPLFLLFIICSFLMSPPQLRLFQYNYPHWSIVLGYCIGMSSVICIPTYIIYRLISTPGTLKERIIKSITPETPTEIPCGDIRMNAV
T1 sequence (P31652 whole entry): as above

[2H]C([2H])(F)C([2H])([2H])C([2H])([2H])Oc1ccc(Sc2ccc(Cl)cc2N)c(CN(C)C)c1 [III-4-25]
Ki [1]: 0.009 nM

[2H]C([2H])(F)C([2H])([2H])C([2H])([2H])Oc1ccc(Sc2ccc(Br)cc2N)c(CN(C)C)c1 [III-4-26]
Ki [1]: 0.021 nM

[2H]C([2H])(F)C([2H])([2H])C([2H])([2H])Oc1ccc(Sc2ccc(F)cc2N)c(CN(C)C)c1 [III-4-27]
Ki [1]: 0.024 nM

[2H]C([2H])(F)C([2H])([2H])C([2H])([2H])Oc1ccc(Sc2ccc(I)cc2N)c(CN(C)C)c1 [III-4-28]
Ki [1]: 0.008 nM

NCc1cc(OCCCF)ccc1Sc1ccccc1N [III-5-5]
Ki [1]: 39.3 ± 11.9 nM

[2H]C([2H])(F)C([2H])([2H])C([2H])([2H])Oc1ccc(Sc2ccccc2N)c(CN)c1 [III-5-8]
Ki [1]: 44.9 ± 2.5 nM

CNCc1cc(OCCCF)ccc1Sc1ccccc1N [III-6-5]
Ki [1]: 5.26 ± 0.66 nM

[2H]C([2H])([2H])NCc1cc(OCCCF)ccc1Sc1ccccc1N [III-6-8]
Ki [1]: 3.05 ± 0.81 nM

CN(C)Cc1ccccc1Sc1ccc(I)cc1CO [[^125I]IDAM, reference compound]
Kd ([1]; value used in Cheng-Prusoff equation): 0.2 nM

[2H]C([2H])([2H])Nc1ccc(/C=C/c2ccc(OCCOCCOCC[18F])nc2)cc1 [^18F-AV-45-D3 (IIa1)]
brain uptake ([2]; mice, after i.v. injection): excellent brain uptake comparable to that observed to ^18F-AV-45 | Biodistribution Blood ([2]; 2 min): 2.16 ± 0.05 % Dose/g | Biodistribution Bone ([2]; 2 min): 1.74 ± 0.18 % Dose/g | Biodistribution Brain ([2]; 2 min): 6.26 ± 0.23 % Dose/g | Biodistribution Heart ([2]; 2 min): 5.08 ± 0.39 % Dose/g | Biodistribution Kidney ([2]; 2 min): 9.51 ± 0.80 % Dose/g | Biodistribution Liver ([2]; 2 min): 12.0 ± 0.70 % Dose/g | Biodistribution Lung ([2]; 2 min): 4.88 ± 0.16 % Dose/g | Biodistribution Muscle ([2]; 2 min): 3.21 ± 0.14 % Dose/g | Biodistribution Pancreas ([2]; 2 min): 4.94 ± 0.77 % Dose/g | Biodistribution Skin ([2]; 2 min): 1.24 ± 0.27 % Dose/g | Biodistribution Spleen ([2]; 2 min): 2.50 ± 0.12 % Dose/g | Biodistribution Blood ([2]; 30 min): 2.93 ± 0.27 % Dose/g | Biodistribution Bone ([2]; 30 min): 2.24 ± 0.44 % Dose/g | Biodistribution Brain ([2]; 30 min): 1.71 ± 0.37 % Dose/g | Biodistribution Heart ([2]; 30 min): 2.40 ± 0.39 % Dose/g | Biodistribution Kidney ([2]; 30 min): 6.41 ± 1.86 % Dose/g | Biodistribution Liver ([2]; 30 min): 12.0 ± 0.71 % Dose/g | Biodistribution Lung ([2]; 30 min): 2.90 ± 0.47 % Dose/g | Biodistribution Muscle ([2]; 30 min): 1.79 ± 0.06 % Dose/g | Biodistribution Pancreas ([2]; 30 min): 2.05 ± 0.29 % Dose/g | Biodistribution Skin ([2]; 30 min): 2.07 ± 0.14 % Dose/g | Biodistribution Spleen ([2]; 30 min): 1.52 ± 0.21 % Dose/g | Biodistribution Blood ([2]; 60 min): 2.08 ± 0.07 % Dose/g | Biodistribution Bone ([2]; 60 min): 2.76 ± 0.37 % Dose/g | Biodistribution Brain ([2]; 60 min): 1.53 ± 0.20 % Dose/g | Biodistribution Heart ([2]; 60 min): 1.72 ± 0.19 % Dose/g | Biodistribution Kidney ([2]; 60 min): 3.74 ± 0.47 % Dose/g | Biodistribution Liver ([2]; 60 min): 8.15 ± 0.75 % Dose/g | Biodistribution Lung ([2]; 60 min): 1.97 ± 0.25 % Dose/g | Biodistribution Muscle ([2]; 60 min): 1.20 ± 0.04 % Dose/g | Biodistribution Pancreas ([2]; 60 min): 1.43 ± 0.20 % Dose/g | Biodistribution Skin ([2]; 60 min): 1.34 ± 0.07 % Dose/g | Biodistribution Spleen ([2]; 60 min): 1.22 ± 0.12 % Dose/g | Biodistribution Blood ([2]; 120 min): 1.36 ± 0.12 % Dose/g | Biodistribution Bone ([2]; 120 min): 4.41 ± 0.77 % Dose/g | Biodistribution Brain ([2]; 120 min): 1.26 ± 0.04 % Dose/g | Biodistribution Heart ([2]; 120 min): 1.18 ± 0.03 % Dose/g | Biodistribution Kidney ([2]; 120 min): 2.09 ± 0.02 % Dose/g | Biodistribution Liver ([2]; 120 min): 5.47 ± 0.29 % Dose/g | Biodistribution Lung ([2]; 120 min): 1.31 ± 0.03 % Dose/g | Biodistribution Muscle ([2]; 120 min): 0.75 ± 0.07 % Dose/g | Biodistribution Pancreas ([2]; 120 min): 0.87 ± 0.15 % Dose/g | Biodistribution Skin ([2]; 120 min): 0.91 ± 0.13 % Dose/g | Biodistribution Spleen ([2]; 120 min): 0.83 ± 0.07 % Dose/g

[2H]C([2H])([2H])N(Cc1cc(OC([2H])([2H])C([2H])([2H])C([2H])([2H])[18F])ccc1Sc1ccccc1N)C([2H])([2H])[2H] [^18F-III-3 (^18F-FPBM-D12)]
Region to Cerebellum Ratio: Cerebellum (SERT; 2 min): 1.00 ± 0.00 | Region to Cerebellum Ratio: Cortex (SERT; 2 min): 1.44 ± 0.27 | Region to Cerebellum Ratio: Hippocampus (SERT; 2 min): 0.97 ± 0.13 | Region to Cerebellum Ratio: Hypothalamus (SERT; 2 min): 1.17 ± 0.21 | Region to Cerebellum Ratio: Remainder (SERT; 2 min): 1.21 ± 0.13 | Region to Cerebellum Ratio: Striatum (SERT; 2 min): 1.15 ± 0.18 | Region to Cerebellum Ratio: Cerebellum (SERT; 30 min): 1.00 ± 0.00 | Region to Cerebellum Ratio: Cortex (SERT; 30 min): 1.81 ± 0.30 | Region to Cerebellum Ratio: Hippocampus (SERT; 30 min): 2.04 ± 0.27 | Region to Cerebellum Ratio: Hypothalamus (SERT; 30 min): 2.99 ± 0.46 | Region to Cerebellum Ratio: Remainder (SERT; 30 min): 2.42 ± 0.13 | Region to Cerebellum Ratio: Striatum (SERT; 30 min): 2.43 ± 0.38 | Region to Cerebellum Ratio: Cerebellum (SERT; 60 min): 1.00 ± 0.00 | Region to Cerebellum Ratio: Cortex (SERT; 60 min): 2.68 ± 0.35 | Region to Cerebellum Ratio: Hippocampus (SERT; 60 min): 3.45 ± 0.42 | Region to Cerebellum Ratio: Hypothalamus (SERT; 60 min): 5.32 ± 0.45 | Region to Cerebellum Ratio: Remainder (SERT; 60 min): 3.77 ± 0.43 | Region to Cerebellum Ratio: Striatum (SERT; 60 min): 3.96 ± 0.62 | Region to Cerebellum Ratio: Cerebellum (SERT; 120 min): 1.00 ± 0.00 | Region to Cerebellum Ratio: Cortex (SERT; 120 min): 2.67 ± 0.50 | Region to Cerebellum Ratio: Hippocampus (SERT; 120 min): 3.85 ± 0.28 | Region to Cerebellum Ratio: Hypothalamus (SERT; 120 min): 7.55 ± 0.82 | Region to Cerebellum Ratio: Remainder (SERT; 120 min): 4.74 ± 0.71 | Region to Cerebellum Ratio: Striatum (SERT; 120 min): 4.69 ± 1.26 | Biodistribution Blood ([3]; 2 min): 0.25 ± 0.04 % Dose/g | Biodistribution Bone ([3]; 2 min): 0.35 ± 0.06 % Dose/g | Biodistribution Brain ([3]; 2 min): 1.09 ± 0.06 % Dose/g | Biodistribution Heart ([3]; 2 min): 1.19 ± 0.18 % Dose/g | Biodistribution Kidney ([3]; 2 min): 3.02 ± 0.16 % Dose/g | Biodistribution Liver ([3]; 2 min): 0.74 ± 0.16 % Dose/g | Biodistribution Lung ([3]; 2 min): 9.56 ± 2.29 % Dose/g | Biodistribution Muscle ([3]; 2 min): 0.14 ± 0.02 % Dose/g | Biodistribution Pancreas ([3]; 2 min): 1.13 ± 0.02 % Dose/g | Biodistribution Skin ([3]; 2 min): 0.22 ± 0.04 % Dose/g | Biodistribution Spleen ([3]; 2 min): 1.48 ± 0.31 % Dose/g | Biodistribution Blood ([3]; 30 min): 0.16 ± 0.03 % Dose/g | Biodistribution Bone ([3]; 30 min): 0.19 ± 0.01 % Dose/g | Biodistribution Brain ([3]; 30 min): 0.81 ± 0.04 % Dose/g | Biodistribution Heart ([3]; 30 min): 0.18 ± 0.02 % Dose/g | Biodistribution Kidney ([3]; 30 min): 1.79 ± 0.38 % Dose/g | Biodistribution Liver ([3]; 30 min): 0.30 ± 0.05 % Dose/g | Biodistribution Lung ([3]; 30 min): 1.86 ± 0.42 % Dose/g | Biodistribution Muscle ([3]; 30 min): 0.09 ± 0.02 % Dose/g | Biodistribution Pancreas ([3]; 30 min): 0.27 ± 0.06 % Dose/g | Biodistribution Skin ([3]; 30 min): 0.19 ± 0.03 % Dose/g | Biodistribution Spleen ([3]; 30 min): 0.88 ± 0.05 % Dose/g | Biodistribution Blood ([3]; 60 min): 0.10 ± 0.02 % Dose/g | Biodistribution Bone ([3]; 60 min): 0.16 ± 0.02 % Dose/g | Biodistribution Brain ([3]; 60 min): 0.54 ± 0.05 % Dose/g | Biodistribution Heart ([3]; 60 min): 0.09 ± 0.01 % Dose/g | Biodistribution Kidney ([3]; 60 min): 1.29 ± 0.29 % Dose/g | Biodistribution Liver ([3]; 60 min): 0.22 ± 0.02 % Dose/g | Biodistribution Lung ([3]; 60 min): 0.85 ± 0.11 % Dose/g | Biodistribution Muscle ([3]; 60 min): 0.07 ± 0.01 % Dose/g | Biodistribution Pancreas ([3]; 60 min): 0.19 ± 0.02 % Dose/g | Biodistribution Skin ([3]; 60 min): 0.16 ± 0.01 % Dose/g | Biodistribution Spleen ([3]; 60 min): 0.46 ± 0.10 % Dose/g | Biodistribution Blood ([3]; 120 min): 0.06 ± 0.00 % Dose/g | Biodistribution Bone ([3]; 120 min): 0.13 ± 0.01 % Dose/g | Biodistribution Brain ([3]; 120 min): 0.31 ± 0.03 % Dose/g | Biodistribution Heart ([3]; 120 min): 0.05 ± 0.01 % Dose/g | Biodistribution Kidney ([3]; 120 min): 0.83 ± 0.39 % Dose/g | Biodistribution Liver ([3]; 120 min): 0.16 ± 0.01 % Dose/g | Biodistribution Lung ([3]; 120 min): 0.45 ± 0.10 % Dose/g | Biodistribution Muscle ([3]; 120 min): 0.03 ± 0.01 % Dose/g | Biodistribution Pancreas ([3]; 120 min): 0.13 ± 0.07 % Dose/g | Biodistribution Skin ([3]; 120 min): 0.10 ± 0.02 % Dose/g | Biodistribution Spleen ([3]; 120 min): 0.21 ± 0.04 % Dose/g | blood-brain-barrier penetration ([3]; rats, after i.v. injection): penetrated the blood-brain-barrier
